In ChEMBL document CHEMBL1201862, “PubChem BioAssay data set” (2004) one finds AC50 and EC50 data, which are given here for 47 molecules.

The structures appear in SMILES notation. Activity calls are given as the source filed them. A value given as a limit tells only on which side of the number the result lay.

Some targets named below: Cytochrome P450 2D6 (Homo sapiens, UniProt P10635); Cytochrome P450 3A4 (Homo sapiens, UniProt P08684); Cytochrome P450 2C9 (Homo sapiens, UniProt P11712).
In data set [1] the test system is Streptococcus sp. 'group A'. The data set is described as follows: Streptococcus pyogenes SK(-)GAS viability under kanamycin – luminescence, BacTiterGlo, confirmation, counter-screen for streptokinase expression inhibitor project, dose response (AID 1900). It is filed as functional, organism-based. In general terms: A counterscreen serves to expose hits that act by an unwanted route or on another target.

Another data set has as its target T1, Streptokinase A (Streptococcus pyogenes serotype M1, UniProt P10520).
T1 sequence (P10520 whole entry): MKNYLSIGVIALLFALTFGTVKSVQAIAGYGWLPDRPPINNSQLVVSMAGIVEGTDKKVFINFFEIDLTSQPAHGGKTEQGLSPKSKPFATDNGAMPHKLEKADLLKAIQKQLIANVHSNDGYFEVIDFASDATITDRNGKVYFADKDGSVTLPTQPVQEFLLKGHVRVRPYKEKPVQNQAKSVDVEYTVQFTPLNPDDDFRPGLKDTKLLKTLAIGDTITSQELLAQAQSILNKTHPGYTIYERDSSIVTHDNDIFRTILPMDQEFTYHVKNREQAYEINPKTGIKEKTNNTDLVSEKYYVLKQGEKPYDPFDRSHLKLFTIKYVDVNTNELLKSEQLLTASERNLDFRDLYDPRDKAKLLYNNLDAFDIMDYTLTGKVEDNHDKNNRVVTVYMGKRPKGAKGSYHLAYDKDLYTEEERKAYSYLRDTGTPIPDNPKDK
The data set is described as follows: viability-normalized secreted streptokinase activity reduction – plasminogen activation absorbance, OD405, dose response (AID 1914).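 Further: secreted streptokinase activity via plasminogen activation per viability signal from cell pellet.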 It is filed as functional, Streptococcus pyogenes M1 GAS.

A further data set deals with Streptococcus. Kind of data set: GAS UMAA2166 growth inhibition – luminescence, BacTiterGlo, counter-screen for streptokinase expression inhibitor project, dose response (AID 1915).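 Further: potency for reduction of bacterial viability or growth.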 It is filed as functional, organism-based.
A further data set has as its target Cytochrome P450 2C19 (Homo sapiens, UniProt P33261). Kind of data set: Cytochrome panel assay with activity outcomes. Panel member name: p450-cyp2c19 Compounds with AC50 equal or less than 10 uM are considered active. The class given is functional.
Data set [2] in a line: NIH3T3 cell viability loss – ATP luminescence, mouse fibroblasts, counter-screen, dose response (AID 2010).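 Further: cells exposed to compound for about 90 hours before reading.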 It is filed as functional, cell-based.
Data set [3] in a line: Trypanosoma cruzi growth suppression in host cells – NIH3T3 host cells, beta-gal luminescence, confirmation (AID 2044).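 Further: intracellular parasites grown in NIH/3T3 mouse fibroblasts as host cells; luminescent beta-galactosidase reporter signal from transgenic T. cruzi replicating inside host cells; inhibitors lower the luminescence signal.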 It is filed as functional, cell-based.
The next data set deals with T2, Cytochrome P450 1A2 (Homo sapiens, UniProt P05177).
T2 sequence (P05177 whole entry): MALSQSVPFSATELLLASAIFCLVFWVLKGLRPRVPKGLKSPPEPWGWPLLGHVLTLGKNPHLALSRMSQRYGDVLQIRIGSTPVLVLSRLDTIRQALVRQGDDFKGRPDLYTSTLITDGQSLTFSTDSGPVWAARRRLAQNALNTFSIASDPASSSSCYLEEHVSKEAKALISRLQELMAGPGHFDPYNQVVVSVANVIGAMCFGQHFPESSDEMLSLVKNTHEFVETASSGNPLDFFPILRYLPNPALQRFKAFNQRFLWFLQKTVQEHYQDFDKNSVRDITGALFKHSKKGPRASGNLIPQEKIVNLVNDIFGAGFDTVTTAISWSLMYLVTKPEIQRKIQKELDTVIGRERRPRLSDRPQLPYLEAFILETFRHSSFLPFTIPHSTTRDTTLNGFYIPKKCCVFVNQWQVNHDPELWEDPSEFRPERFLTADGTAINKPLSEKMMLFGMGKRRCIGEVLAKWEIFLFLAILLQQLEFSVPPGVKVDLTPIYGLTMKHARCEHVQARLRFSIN

In the next data set the test system is INS1. The data set is described as follows: INS-1E survival protection against cytokine death – cell-based, luminescence, retest, dose response (AID 449756).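 Further: cell death triggered by IL-1 beta plus TNF-alpha plus IFN-gamma mixture; protective hits raise ATP signal compared with cytokine alone wells.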 Particulars: Rattus norvegicus. It is filed as functional.

Cytochrome P450 2C19, sequence (P33261 whole entry): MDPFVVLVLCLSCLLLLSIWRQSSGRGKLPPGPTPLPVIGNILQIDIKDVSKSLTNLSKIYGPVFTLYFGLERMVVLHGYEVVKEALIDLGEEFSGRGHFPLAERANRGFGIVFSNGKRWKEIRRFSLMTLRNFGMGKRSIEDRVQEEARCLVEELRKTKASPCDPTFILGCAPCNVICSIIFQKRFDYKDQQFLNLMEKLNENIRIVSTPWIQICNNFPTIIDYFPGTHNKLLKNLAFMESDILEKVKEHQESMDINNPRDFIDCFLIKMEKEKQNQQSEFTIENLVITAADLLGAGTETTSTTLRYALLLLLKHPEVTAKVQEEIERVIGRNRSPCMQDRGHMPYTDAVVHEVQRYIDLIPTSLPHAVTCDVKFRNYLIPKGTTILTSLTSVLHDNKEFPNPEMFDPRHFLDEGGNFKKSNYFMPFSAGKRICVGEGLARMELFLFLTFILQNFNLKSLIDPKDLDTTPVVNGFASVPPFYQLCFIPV
Cytochrome P450 2C9, sequence (P11712 whole entry): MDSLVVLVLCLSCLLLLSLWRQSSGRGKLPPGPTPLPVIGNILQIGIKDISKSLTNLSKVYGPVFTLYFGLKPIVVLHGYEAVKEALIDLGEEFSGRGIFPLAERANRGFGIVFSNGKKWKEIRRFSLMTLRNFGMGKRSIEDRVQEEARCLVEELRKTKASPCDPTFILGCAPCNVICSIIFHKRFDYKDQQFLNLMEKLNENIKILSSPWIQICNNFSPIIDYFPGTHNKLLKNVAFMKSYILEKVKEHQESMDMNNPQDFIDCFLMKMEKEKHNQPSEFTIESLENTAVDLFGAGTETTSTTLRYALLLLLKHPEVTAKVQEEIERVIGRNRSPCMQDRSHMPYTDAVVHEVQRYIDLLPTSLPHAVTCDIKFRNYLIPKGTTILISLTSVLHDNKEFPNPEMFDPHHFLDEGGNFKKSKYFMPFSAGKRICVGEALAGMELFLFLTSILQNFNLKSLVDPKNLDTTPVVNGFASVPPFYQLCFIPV
Cytochrome P450 3A4, sequence (P08684 whole entry): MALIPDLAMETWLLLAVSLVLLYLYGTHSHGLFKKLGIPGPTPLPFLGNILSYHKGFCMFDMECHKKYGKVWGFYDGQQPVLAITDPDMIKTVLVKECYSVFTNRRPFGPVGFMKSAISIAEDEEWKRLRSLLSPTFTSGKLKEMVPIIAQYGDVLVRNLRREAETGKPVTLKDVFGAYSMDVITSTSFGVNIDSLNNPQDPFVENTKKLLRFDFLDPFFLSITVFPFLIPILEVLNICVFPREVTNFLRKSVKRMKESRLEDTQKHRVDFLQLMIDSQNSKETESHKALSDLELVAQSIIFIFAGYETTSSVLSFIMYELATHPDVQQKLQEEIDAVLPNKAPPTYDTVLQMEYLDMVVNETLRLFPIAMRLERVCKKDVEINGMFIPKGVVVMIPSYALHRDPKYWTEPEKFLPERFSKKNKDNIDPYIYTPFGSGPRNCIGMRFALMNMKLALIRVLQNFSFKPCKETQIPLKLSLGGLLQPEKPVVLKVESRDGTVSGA
Cytochrome P450 2D6, sequence (P10635 whole entry): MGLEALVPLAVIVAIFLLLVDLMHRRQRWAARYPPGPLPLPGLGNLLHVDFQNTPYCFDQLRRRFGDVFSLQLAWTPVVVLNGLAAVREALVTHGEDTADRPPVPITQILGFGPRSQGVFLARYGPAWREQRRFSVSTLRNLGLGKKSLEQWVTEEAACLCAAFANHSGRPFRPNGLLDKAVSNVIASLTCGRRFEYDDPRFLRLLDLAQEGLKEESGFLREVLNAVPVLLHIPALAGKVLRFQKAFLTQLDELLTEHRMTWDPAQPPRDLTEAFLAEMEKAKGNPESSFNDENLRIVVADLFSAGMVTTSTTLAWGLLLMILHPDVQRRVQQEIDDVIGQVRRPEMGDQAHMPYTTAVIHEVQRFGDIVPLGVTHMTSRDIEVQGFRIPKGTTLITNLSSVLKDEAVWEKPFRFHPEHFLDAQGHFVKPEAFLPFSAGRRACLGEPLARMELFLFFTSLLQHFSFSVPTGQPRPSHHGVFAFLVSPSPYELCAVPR

As for `CN(C)C(=O)c1ccc(-c2nc(NCc3cccs3)c3ccccc3n2)cc1`, the AC50 on Cytochrome P450 2D6 is 25.1 µM (inconclusive).
As for `O=C(O)CSCC(=O)N(Cc1ccccc1)c1nc(-c2ccccc2)c(-c2ccccc2)s1`, the EC50 in data set [1] was 0.996 µM (active); at Streptokinase A, 2.81 µM (active); with Streptococcus, 8.03 µM (active).
On to `COCC(=O)N1CCC2(CC1)CN(c1ccncc1)C2`, for which the AC50 on Cytochrome P450 2D6 is 25.1 µM (inconclusive).
On to `CCOC(=O)CSc1n[nH]c(-c2cccnc2)n1`, for which the values for the AC50 on Cytochrome P450 3A4 and at Cytochrome P450 2C19 (read-out: AC50) were 15.8 µM (inconclusive) and 11.2 µM (inconclusive), respectively.
Turning to `CN(Cc1ccco1)c1ncnc2ccc(-c3cccc(NS(C)(=O)=O)c3)cc12`, the AC50 at Cytochrome P450 2C9 is 0.794 µM (inconclusive).
As for `Cc1cccc(CSc2nc(N)c(C#N)c(-c3cccs3)c2C#N)c1`, the EC50 in data set [1] is 5.04 µM (active); on Streptokinase A, 4.93 µM (active); in [2], > 60 µM (inconclusive); with Streptococcus it was > 150 µM (not active); in data set [3] it was 2.31 µM (active).
On to `CCSc1nnc(NC(=O)CSc2nc3c(cc2C#N)CCCC3)s1`, for which the figures for the AC50 on Cytochrome P450 1A2 and on Cytochrome P450 2D6 were 15.8 µM (inconclusive) and 3.55 µM (inconclusive), respectively.
For `COc1ccc(NS(=O)(=O)c2cccc(NC(=O)CCC(=O)c3ccc(Cl)cc3)c2)cc1`, the EC50 in data set [1] was 11.2 µM (active); on Streptokinase A it was > 150 µM (not active); in the data set with Streptococcus, 25.3 µM (active).
With `N#CC(C#N)=Cc1cc(O)c(O)c(O)c1` [TYRPHOSTIN 25], the AC50 at Cytochrome P450 2C9 was 15.8 µM (inconclusive).
`COc1cccc(-c2ccc3ncnc(Nc4ccccc4)c3c2)c1`: at Cytochrome P450 2C9, the AC50 was 0.631 µM (inconclusive).
Turning to `CC(C)(C)NC(=O)CSc1nnc(Cc2ccc3c(c2)OCO3)n1C1CCCCC1`, the AC50 at Cytochrome P450 2D6 was 2.82 µM (inconclusive).
`O=C(CNC(=O)c1ccc2c(c1)OCO2)N/N=C/c1cc(Br)ccc1O`: the figures for the EC50 (in [1]; at Streptokinase A; in the data set with Streptococcus) were 10.1 µM (active), > 150 µM (not active) and 25.2 µM (inconclusive), respectively. Besides, the AC50 with INS1 is 3.36 µM (active).
Take `CN1CCN(c2ncc3nc(-c4ccccc4)c(=O)n(CCC#N)c3n2)CC1`: the AC50 was 20 µM (inconclusive) at Cytochrome P450 1A2 and 25.1 µM (inconclusive) on Cytochrome P450 2D6.
As for `O=C(c1ccccc1)[C@H](Nc1ccc2ccccc2c1)c1ccccc1`, the AC50 on Cytochrome P450 2D6 is 1.58 µM (inconclusive).
Still for that read-out and setting: then `CCCCOc1ccc(/C=C/C(=O)NCCc2nc3ccccc3[nH]2)cc1`, with 14.1 µM (inconclusive).
In the case of `Cc1cnc(CNc2ncncc2-c2ccccc2Cl)cn1`, the AC50 on Cytochrome P450 3A4 is 0.251 µM (inconclusive); at Cytochrome P450 2D6, 25.1 µM (inconclusive).
In the case of `CN1c2ccccc2C(O)=C(C(=O)Nc2ccccc2)S1(=O)=O`, the AC50 on Cytochrome P450 3A4 was 39.8 µM (inconclusive); on Cytochrome P450 2C19, “inconclusive”.
As to `COCc1nnc(NC(=O)CCN2C(=O)c3ccccc3C2=O)s1`, the results for the AC50 at Cytochrome P450 2C9 and at Cytochrome P450 2D6 were 31.6 µM (inconclusive) and 17.8 µM (inconclusive), respectively.
With `Cn1ncc2c(Nc3ccc(Cl)c(Cl)c3)ncnc21`, the values for the EC50 (in data set [1]; at Streptokinase A; in the data set on Streptococcus) were 7.9 µM (active), > 150 µM (not active) and 16 µM (active), respectively.
Consider `Cc1ccc(NS(=O)(=O)c2ccc(C3CCCCC3)cc2)cc1`, for which the EC50 in [1] was 4.32 µM (active); on Streptokinase A, 4.17 µM (active); with Streptococcus, 7.04 µM (active).
`O=C(Nc1cccc(F)c1)N1CCCCCC1`: the EC50 (in data set [1]; at Streptokinase A; with Streptococcus) was > 150 µM (not active) each time.
Regarding `CC(C)c1ccc(COc2ccc(C(=O)N3CCOCC3)cc2)cc1`, the AC50 with INS1 is 9.42 µM (active).
For `CCCCCCCCCCCCC/C=C\[C@@H](O)[C@H](CO)NC(C)=O`, at Cytochrome P450 2D6, the AC50 is 3.98 µM (inconclusive).
On to `O=c1ccc2[nH]cc(C3=CCNCC3)c2[nH]1`, for which the AC50 at Cytochrome P450 2C9 was 7.94 µM (inconclusive).
As to `Cc1c(C(=O)NCCC2=CCCCC2)cccc1[N+](=O)[O-]`, the AC50 on Cytochrome P450 1A2 is 15.8 µM (inconclusive); at Cytochrome P450 3A4, 14.1 µM (inconclusive); on Cytochrome P450 2D6, 15.8 µM (inconclusive).
Consider `COc1ccc(NC(=O)COC(=O)Cn2c(C)nc3ccccc32)cc1OC`, for which the AC50 at Cytochrome P450 2C19 (read-out: AC50) was 3.55 µM (inconclusive).
Regarding `COc1ccc2[nH]cc(CCNc3ncnc4ccc(-c5c(C)noc5C)cc34)c2c1`, at Cytochrome P450 2C9, the AC50 is 0.501 µM (inconclusive).
In the case of `Cc1ccc(NC(=O)c2cccc(OCc3c(C)noc3C)c2)cc1S(=O)(=O)Nc1ccccc1Cl`, the EC50 is > 150 µM (not active) at Streptokinase A and 57.1 µM (active) in the data set with Streptococcus.
For the molecule `COc1ccc(OCCNS(=O)(=O)c2ccc3oc4ccccc4c3c2)cc1`, the AC50 at Cytochrome P450 2C9 was 2.51 µM (inconclusive).
With `CS(=O)(=O)Nc1cccc(-c2nccc(Nc3ccc(F)cc3)n2)c1`, the AC50 on Cytochrome P450 2D6 was 39.8 µM (inconclusive).
In the case of `CCN(CC)S(=O)(=O)c1cccc(NC(=O)c2cc(-c3cccs3)nn2-c2ccccc2)c1`, the concentration at half-maximal activity (AC50) in the data set on INS1 is 10.3 µM (active).
On the same count and under the same terms, the figure for `N=c1c2ccccc2nc2n1CCCCCCCCCCC2` is 9.52 µM (active).
On to `CC1(C)Cc2c(cnn2-c2ccccc2)C(NC(=O)CCCN2CCCC2=O)C1` (stereo unspecified), for which the EC50 (in data set [1]; at Streptokinase A; in the data set on Streptococcus) was > 150 µM (not active) in each case.
Consider `Cc1ccc(-n2c(-c3ccccc3)cc(=O)nc2C)cc1`, for which, on Cytochrome P450 2C9, the AC50 is 7.08 µM (inconclusive).
For `CN1CCC(=C2c3ccccc3Sc3ccccc32)CC1` [PIMETHIXENE], on Cytochrome P450 2C19 (read-out: AC50), the half-maximal activity concentration (AC50) is 15.8 µM (inconclusive).
For `Cc1ccc(-c2csc(NNC(=O)c3ccccc3)n2)cc1`, the values for the EC50 (in [1]; on Streptokinase A; in the data set with Streptococcus) were 4.37 µM (active), > 150 µM (not active) and > 150 µM (not active), respectively.
With `COc1cc(/C=N/Nc2snc(SC)c2C#N)cc(OC)c1OC`, on Cytochrome P450 2D6, the AC50 is 12.6 µM (inconclusive).
With `COc1ccc(NC(=O)N2CCCC3(CCN(C(=O)c4ccc(OC)cc4)CC3)C2)cc1`, the AC50 at Cytochrome P450 2C9 was 39.8 µM (inconclusive).
With `COC(=O)[C@@]1(Cc2ccc(OC)cc2)[C@H]2c3cc(C(=O)N4CCCC4)n(Cc4nc5ccccc5[nH]4)c3C[C@H]2CN1C(=O)c1ccccc1`, the AC50 on Cytochrome P450 2C19 (read-out: AC50) was 20 µM (inconclusive).
Take `CC(C)(C)c1ccc(OCC(=O)NNC(=O)Cc2cccs2)cc1`: the AC50 is 28.2 µM (inconclusive) on Cytochrome P450 1A2 and 20 µM (inconclusive) on Cytochrome P450 2C19 (read-out: AC50).
In the case of `COc1cnc(-c2ccccn2)nc1Oc1c(C)cccc1C`, the EC50 is 6.39 µM (active) in data set [1], > 150 µM (not active) at Streptokinase A and > 150 µM (not active) in the data set with Streptococcus.
With `COCCn1c(=O)c(-c2ccc(Cl)cc2)nc2cnc(OC)nc21`, the AC50 on Cytochrome P450 2C9 was 39.8 µM (inconclusive); at Cytochrome P450 2D6, 25.1 µM (inconclusive).
With `FC(F)(F)Oc1ccc(N=C(S)Nc2ccc(OC(F)(F)F)cc2)cc1`, the results for the EC50 (in data set [1]; at Streptokinase A; in the data set with Streptococcus) were 15.8 µM (active), > 150 µM (not active) and 22 µM (active), respectively.
With `CCOC(=O)c1sc(NC(C)=O)nc1-c1ccccc1`, the AC50 on Cytochrome P450 2C19 (read-out: AC50) was 10 µM (inconclusive).
Regarding `O=P([O-])([O-])C(Cl)(Cl)P(=O)(O)O.[Na+].[Na+]` [CLODRONATE DISODIUM], the AC50 entry at Cytochrome P450 2C19 is on record as “inconclusive”.
Consider `CCc1ccc(OCC(=O)NC(=S)Nc2ccc(F)cc2)c(Br)c1`, for which the AC50 on Cytochrome P450 1A2 and at Cytochrome P450 2C9 was 3.16 µM (inconclusive) in each case.
As to `CS(=O)(=O)N1CCC2(CCN(Cc3ccncc3)CC2)CC1`, the AC50 on Cytochrome P450 3A4 was 12.6 µM (inconclusive); at Cytochrome P450 2C9, 31.6 µM (inconclusive); on Cytochrome P450 2D6, 25.1 µM (inconclusive).

Usually AC50 stands for the concentration giving half of the maximal activity seen. As a reminder, the EC50 is the concentration needed to bring the measured effect to its halfway point.
